The record followed here is publication PMC5908784, “Extracellular loops 2 and 3 of the calcitonin receptor selectively modify agonist binding and efficacy” (Biochemical Pharmacology, 2018).

Changes are numbered by the printed parent chain. Where no end group is shown, it is not given here.

Common to all, as to assay: Homologous whole cell competition binding
Common to all, as to conditions: homologous competition of 125I-sCT(8-32), whole cells, mean ± S.E.M., SEM

One assay concerns the target T1, hCTR T295A (Homo sapiens, UniProt P30988, T295A).
T1 construct: c-Myc (N); expressed in transfected cells
T1 sequence (P30988 25-474 T295A): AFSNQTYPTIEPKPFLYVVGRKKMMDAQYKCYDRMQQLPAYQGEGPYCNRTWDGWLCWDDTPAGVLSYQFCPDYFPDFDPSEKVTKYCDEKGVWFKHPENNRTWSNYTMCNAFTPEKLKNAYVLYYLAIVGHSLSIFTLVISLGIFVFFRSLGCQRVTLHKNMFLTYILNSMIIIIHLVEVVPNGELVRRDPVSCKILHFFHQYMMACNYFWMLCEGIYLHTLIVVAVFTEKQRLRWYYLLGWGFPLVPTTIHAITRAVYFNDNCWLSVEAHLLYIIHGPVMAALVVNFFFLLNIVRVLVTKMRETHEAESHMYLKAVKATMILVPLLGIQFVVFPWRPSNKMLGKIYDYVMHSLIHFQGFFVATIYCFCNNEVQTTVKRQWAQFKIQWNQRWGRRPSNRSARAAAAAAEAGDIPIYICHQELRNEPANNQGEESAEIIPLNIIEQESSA
Summed up: (§1)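 Affinity comes from self-competition of sCT(8-32) against its iodinated form on intact cells, held at 4 °C overnight. Bound counts were read on a gamma counter, fitted to a 3-parameter logistic curve and converted with Cheng-Prusoff.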

For the next assay, the target named is T2, hCTR L368A (Homo sapiens, UniProt P30988, L368A).
T2 construct: c-Myc (N); expressed in transfected cells
T2 sequence (P30988 25-474 L368A): T1 sequence (P30988 25-474 T295A) with A271T, L344A
In short, it runs like this:
as §1

The target of a further assay is T3, hCTR L291A (Homo sapiens, UniProt P30988, L291A).
T3 construct: expressed in transfected cells
T3 sequence (P30988 25-474 L291A): T1 sequence (P30988 25-474 T295A) with L267A, A271T
Summed up:
as §1

A further assay has as its target T4, hCTR F285A (Homo sapiens, UniProt P30988, F285A).
T4 construct: expressed in transfected cells
T4 sequence (P30988 25-474 F285A): T1 sequence (P30988 25-474 T295A) with F261A, A271T
In short, it runs like this:
as §1

As usually defined, the Ki is the dissociation constant of the complex between target and ligand, obtained from inhibition or displacement. A low value points to a stronger hold on the target. Take “VLGKLSQELHKLQTYPRTNTGSGTP-NH2 [sCT(8-32)]”: the inhibition constant Ki on hCTR T295A is 0.0501 nM; on hCTR L368A, 0.209 nM; on hCTR L291A, 1.74 nM; on hCTR F285A, 0.102 nM.
